{
  "source": "patent US9289505B2",
  "about": "“Compositions and methods for delivering nucleic acid molecules and treating cancer” (Rutgers, The State University of New Jersey, priority 2010, dated 2016)",
  "key": {"[1]": {"test_system": "subcutaneous tumor xenografts of human A549 cancer cells", "assay": "Antitumor activity in subcutaneous A549 xenografts", "settings": "intratumoral 3 times within 10 days", "procedure": "NCR nude mice (female, 6 weeks, 20 g) were purchased from Taconic Farms, Inc. (Germantown, N.Y.). […] Briefly, A549 human cancer cells transfected with luciferase (5×10^6) were subcutaneously transplanted into the flanks of female athymic nu/nu mice. According to the approved institutional animal use protocol, the tumors were measured by a caliper every other day and their volumes were calculated as d^2×D/2 where d and D are the shortest and longest diameter of the tumor in mm, respectively. When the tumor reached a mean size of 50 mm^3, mice were divided into seven groups and injected intratumorally 3 times within 10 days with 150 μL of the following formulations: (1) saline (control); (2) free non-bound LHRH; (3) free non-bound siRNA; (4) free non-bound CIS; (5) Mixture of CIS and SPIO-PPI G5; (6) Mixture of CIS and SPIO-PPI G5-siRNA; and (7) Mixture of CIS and SPIO-PPI G5-siRNA-PEG-LHRH complexes. The concentrations of CIS and siRNA in the formulations were 2.5 mg/kg and 30 μM, respectively. Changes in tumor size were monitored by real-time bioluminescence in anesthetized animals by IVIS imaging system (Xenogen Bioscience, Cranbury, N.J.)."}, "[2]": {"test_system": "A549 human lung cancer cells", "assay": "Cellular internalization of FAM-labelled siRNA", "assay_type": "cell-based", "settings": "24 hours, siRNA 0.25 μM, fluorescence microscopy", "protocol": "Prior to the visualization, A549 cells were plated (20,000 cells per well) in a 6-well tissue culture plate. The cells were treated within 24 hours with the siRNA complex prepared with different generations of PPI dendrimer. The treatment of the A549 cells was performed in such a manner that the final concentration of siRNA was 0.25 μM and the concentrations of PPI G2, G3, G4, and G5 dendrimers were 3.15 μM, 1.58 μM, 0.79 μM, and 0.39 μM, respectively. After 24 hours of treatment, the cells were washed three times with Phosphate Buffered Saline (PBS) and 1 mL of media was added to each well. Cellular internalization of siRNA-dendrimer complexes were analyzed by fluorescent (Olympus America Inc., Melville, N.Y.) and confocal (Leica Microsystems Inc., Bannockburn, Ill.) microscopes. To obtain intracellular distribution of siRNA, ten optical sections, known as a z-series, were photographed sequentially, by confocal microscope, along the vertical (z) axis from the top to the bottom of the cell. The obtained fluorescent images were digitally scanned and fluorescence inside cells (reflecting intracellular accumulation of labelled siRNA) was expressed in arbitrary units."}, "BCL2 gene": {"test_system": "BCL2 gene", "assay": "BCL2 gene expression, RT-PCR", "assay_type": "cell-based, human", "settings": "A2780 cells, BCL2 siRNA 1 μM delivered by the named carrier, 24 hours", "protocol": "Reverse transcription-polymerase chain reaction (RT-PCR) was used for the analysis of gene expression (Pakunlu et al. (2004) Cancer Res., 64:6214-6224). […] After 24 hours, total cellular RNA was isolated using an RNeasy kit (Qiagen, Valencia, Calif.). […] After synthesis, the reaction mixture was immediately subjected to polymerase chain reaction (PCR), which was carried out using […] System 2400 (Perkin-Elmer, Shelton, Conn.). β2-microglobulin (β2-m) was used as an internal standard. The following pairs of primers were used: BCL2: [NT] (sense; SEQ ID NO: 6), [NT] (antisense; SEQ ID NO: 7); β2-m (internal […] (sense; SEQ ID NO: 8), [NT] (antisense; SEQ ID NO: 9). PCR regimen was as follows: 94° C. for 5 minutes; 94° C. for 1 minute, 55° C. for 1 minute, and 72° C. for 1 minute for 41 cycles; and 60° C. for 10 minutes. PCR products were separated in 4% NuSieve 3:1 Reliant-agarose gels (Lonza, Basel, Switzerland) in 1× Tris-borate EDTA buffer [0.089 mol/L Tris-borate, 0.002 mol/L EDTA (pH 8.3); Research Organics Inc., Cleveland, Ohio] by submarine electrophoresis. The gels were stained with EtBr and digitally photographed."}, "[3]": {"assay": "Serum stability of siRNA and PAMAM-PEG-PLL-siRNA complex", "assay_type": "in vitro ADME", "settings": "50% human serum, 37° C.", "protocol": "Serum stabilities of naked siRNA and siRNA complexed with PAMAM-PEG-PLL nanocarrier were investigated by incubating siRNA or PAMAM-PEG-PLL-siRNA complex in 50% human serum at 37° C. Ten samples were prepared by mixing siRNA (30 nmol) in water with PAMAM-PEG-PLL (74.8 nmol, N/P=3) solution in water and separately incubated for 30 minutes at room temperature. In the case of naked siRNA, equal volume of RNAase free water was used instead of nanocarrier. To each of these samples 50% human plasma was added (final siRNA concentration was 1.43 nM) and incubated at 37° C. Samples were removed at an indicated time intervals (0, 0.25, 0.5, 0.75, 1, 3, 6, 12, 24 and 50 hours) and analyzed using a gel electrophoresis (4% agarose gel at 100 V for 50 minutes) in Tris-Borate-EDTA buffer containing EtBr. siRNA bands on the gel were visualized under ultraviolet light. PAMAM-PEG-PLL-siRNA samples were pre-treated with polymethacrylic acid to release free siRNA from cationic nanocarriers. 100 μL of polymethacrylic acid solution (4 μM) was added to the complexes (triblock nanocarrier/siRNA=3) and incubated at 37° C. with 50% human plasma. The released siRNA was then analyzed by a gel electrophoresis."}, "BCL2 mRNA": {"test_system": "BCL2 mRNA", "assay": "BCL2 gene silencing by siRNA-dendrimer complexes, RT-PCR", "assay_type": "cell-based, human", "settings": "A549 cells, 24 hours incubation", "protocol": "Quantitative reverse transcription-polymerase chain reaction (RT-PCR) was used for the analysis of expression of genes encoding BCL2 protein and β2-microglobulin (internal standard) as previously described (Pakunlu et al. (2003) Pharm. Res., 20:351-359). RNA was isolated after 24 hours incubation of cancer cells with siRNA-dendrimer complexes, using an RNeasy kit (Qiagen, Valencia, Calif.). First strand complementary DNA (cDNA) was synthesized by Ready-To-Go You-Prime First-Strand Beads (Amersham Biosciences, Piscataway, N.J.) with […] of total cellular RNA and 100 ng of random hexadeoxynucleotide primer (Amersham Bioscience, Piscataway, N.J.). After synthesis, the reaction mixture was immediately subjected to PCR, which was carried out using GenAmp® PCR System 2400 (Perkin-Elmer, Shelton, Conn.). The following pairs of primers were used: BCL2-GGATTGTGGCCTTCTTTGAG (sense; SEQ ID NO: 6), CCAAACTGAGCAGAGTCTTC (antisense; SEQ ID NO: 7); β2-microglobulin (β2-m)-ACCCCCACTGAAAAAGATGA (sense; SEQ ID NO: 8), ATCTTCAAACCTCCATGATG (antisense; SEQ ID NO: 9). […] Gene expression was calculated as the ratio of mean band intensity of analyzed RT-PCR product (BCL2) to that of the internal standard (β2-m). […]"}, "[4]": {"test_system": "A2780 human ovarian cancer cells", "assay": "Cellular uptake of fluorophore labeled siRNA, confocal microscopy", "assay_type": "cell-based", "settings": "living cells", "protocol": "Cellular uptake and intracellular localization of siRNA was investigated using a confocal microscopy. In this experiment, living cancer cells were incubated with fluorophore labeled naked siRNA (siGLO® Red, red fluorescence) and siRNA complexed with cationic nanocarrier PAMAM-PEG-PLL (N/P=3). Cellular uptake studied substances was monitored in living cells placed in a chamber at 37° C. within 1 hour. Cellular localization of siRNA was examined on fixed and washed cells after the incubation for 24 hours with the substances. Fluorescence and its distribution within the cell were examined using a confocal microscope."}},
  "note": "d = 2'-deoxy (DNA); r = 2'-OH (RNA)",
  "data": [
    {"substance": "5′-GUGAAGUCAACAUGCCUGC-dTdT-3′ (sense strand; SEQ ID NO: 4) and 5′-GCAGGCAUGUUGACUUCAC-dTdT-3′ (antisense strand; SEQ ID NO: 5) (sense GUGAAGUCAACAUGCCUGCTT; antisense GCAGGCAUGUUGACUUCACTT; sugars from the 5' end r19 d2, backbone not given here) [naked siRNA, siRNA targeted to BCL2 mRNA without carrier; fluorophore labelled siRNA used in uptake tests]", "values": [
      {"measurement": "tumor growth / antitumor activity", "setting": "[1]", "value": "did not significantly influence the growth of the tumor"},
      {"measurement": "siRNA cellular internalization", "setting": "[2]", "value": "not internalized by the cells"},
      {"measurement": "expression of targeted BCL2 gene, from control value", "setting": "BCL2 gene", "value": "did not influenced"},
      {"measurement": "incubation time after which siRNA started to degrade", "setting": "[3]", "value": 1, "unit": "h"},
      {"measurement": "BCL2 gene knockdown", "setting": "BCL2 mRNA", "value": "Gene silencing was not observed"},
      {"measurement": "cellular uptake of siRNA", "setting": "[4]", "value": "did not penetrate the cancer cells"}
    ]}
  ]
}
